ChEMBL document CHEMBL1151178, “Staminane- and isopimarane-type diterpenes from Orthosiphon stamineus of Taiwan and their nitric oxide inhibitory activity” (J Nat Prod, 2004)

Each compound was assayed on J774.1 (assay: Inhibition of LPS-induced NO production in mouse J774.1cells after 24 hrs). Details: J774.1, 24 h.
Type: functional, cell-based
Work on C=C[C@@]1(C)C[C@@H](O)[C@@H]2[C@@]3(C)C=C(OC(C)=O)C(=O)C(C)(C)[C@@H]3C[C@@H](OC(C)=O)[C@@]2(O)[C@H]1OC(C)=O yielded an IC50 of 119 µM.
C=C[C@@]1(C)CC(=O)[C@H]2[C@](O)(C1=O)[C@H](OC(C)=O)C[C@H]1C(C)(C)[C@H](O)[C@H](OC(=O)c3ccccc3)[C@H](O)[C@@]12C [ORTHOSIPHONONE C] showed an IC50 of 81.8 µM.
Work on C=C[C@@]1(C)CC(=O)[C@H]2[C@](O)(C1=O)[C@H](OC(C)=O)C[C@H]1C(C)(C)[C@H](OC(=O)c3ccccc3)[C@H](O)[C@H](OC(=O)c3ccccc3)[C@@]12C [ORTHOSIPHONONE D] yielded an IC50 of 35 µM.
C=C[C@H]1[C@@H](OC(=O)c2ccccc2)[C@H]2[C@](O)(C(=O)[C@@]1(C)O)[C@H](OC(C)=O)C[C@H]1C(C)(C)[C@H](OC(=O)c3ccccc3)[C@H](O)[C@H](OC(C)=O)[C@@]12C [STAMINOL C] showed an IC50 of 61.1 µM.
Compound C=C[C@H]1[C@@H](OC(=O)c2ccccc2)[C@@H]2[C@@]3(C)C=C(OC(C)=O)C(=O)C(C)(C)[C@@H]3C[C@@H](OC(C)=O)[C@@]2(O)C(=O)[C@@]1(C)O [STAMINOL D] has an IC50 of 92 µM.
CNC(=N)NCCC[C@H](N)C(=O)O [TILARGININE] gave an IC50 of 35.7 µM.
